Measurements as given in ChEMBL document CHEMBL5512665, “A CARM1 Inhibitor Potently Suppresses Breast Cancer Both In Vitro and In Vivo” (J Med Chem, 2024).
Activity calls are given as the source filed them. No cut-off for these calls is given here.

Experiments:
[1] = system: MCF7; assay: Antiproliferative activity against human MCF7 cells assessed as reduction in cell growth incubated for 7 days by celltiter 96 aqueous one solution cell proliferation assay; settings: MCF7, 168 h
[2] = system: T47D; assay: Antiproliferative activity against human T47D cells assessed as reduction in cell growth incubated for 7 days by celltiter 96 aqueous one solution cell proliferation assay; settings: 168 h
[3] = system: MCF7; assay: Antitumor activity against human MCF7 cells xenografted in BALB/C mouse assessed as reduction of tumor size at 25 mg/kg,ip administrated every other day for 29 days; assay type: functional, organism-based; settings: time 29.0 day
[4] = system: MCF7; assay: Antitumor activity against human MCF7 cells xenografted in BALB/C mouse assessed as downregulation of CCND1 gene expression at 50 mg/kg,ip administrated every other day for 29 days by RT-qPCR analysis; assay type: functional, organism-based; settings: time 29.0 day
[5] = system: MCF7; assay: Antitumor activity against human MCF7 cells xenografted in BALB/C mouse assessed as downregulation of C-Myc gene expression at 25 mg/kg,ip administrated every other day for 29 days by RT-qPCR analysis; assay type: functional, organism-based; settings: time 29.0 day
[6] = system: MCF7; assay: Antitumor activity against human MCF7 cells xenografted in BALB/C mouse assessed as downregulation of C-Myc gene expression at 50 mg/kg,ip administrated every other day for 29 days by RT-qPCR analysis; assay type: functional, organism-based; settings: time 29.0 day
[7] = system: MCF7; assay: Antitumor activity against human MCF7 cells xenografted in BALB/C mouse assessed as downregulation of FOXC1 gene expression at 50 mg/kg,ip administrated every other day for 29 days by RT-qPCR analysis; assay type: functional, organism-based; settings: time 29.0 day
[8] = system: MCF7; assay: Antitumor activity against human MCF7 cells xenografted in BALB/C mouse assessed as upregulation of IFNalpha gene expression at 25 mg/kg,ip administrated every other day for 29 days by RT-qPCR analysis; assay type: functional, organism-based; settings: time 29.0 day
[9] = system: MCF7; assay: Antitumor activity against human MCF7 cells xenografted in BALB/C mouse assessed as upregulation of ISG15 gene expression at 25 mg/kg,ip administrated every other day for 29 days by RT-qPCR analysis; assay type: functional, organism-based; settings: time 29.0 day
[10] = system: MCF7; assay: Antitumor activity against human MCF7 cells xenografted in BALB/C mouse assessed as upregulation of ISG15 gene expression at 50 mg/kg,ip administrated every other day for 29 days by RT-qPCR analysis; assay type: functional, organism-based; settings: time 29.0 day
[11] = system: MCF7; assay: Antitumor activity against human MCF7 cells xenografted in BALB/C mouse assessed as upregulation of CCL5 gene expression at 25 mg/kg,ip administrated every other day for 29 days by RT-qPCR analysis; assay type: functional, organism-based; settings: time 29.0 day
[12] = system: MCF7; assay: Antitumor activity against human MCF7 cells xenografted in BALB/C mouse assessed as upregulation of DDX58 gene expression at 25 mg/kg,ip administrated every other day for 29 days by RT-qPCR analysis; assay type: functional, organism-based; settings: time 29.0 day
[13] = system: MDA-MB-468; assay: Antiproliferative activity against human MDA-MB-468 cells assessed as reduction in cell growth incubated for 7 days by celltiter 96 aqueous one solution cell proliferation assay; settings: MDA-MB-468, 168 h
[14] = system: MDA-MB-231; assay: Antitumor activity against human MDA-MB-231 cells xenografted in BALB/C mouse assessed as reduction of tumor size at 50 mg/kg,ip administrated daily for 11 days; assay type: functional, organism-based; settings: time 11.0 day
[15] = Toxicity in BALB/C mouse xenografted with human MDA-MB-231 cells assessed as change in body weight at 25 mg/kg,ip administrated daily for 11 days; assay type: organism-based; settings: in vivo, 264 h, time 11 day
[16] = Toxicity in BALB/C mouse implanted with mouse 4T1 cells assessed as change in heart morphology at 25 mg/kg,ip administrated daily for 14 days; assay type: organism-based; settings: in vivo, 336 h, time 14 day
[17] = system: 4T1; assay: Antitumor activity against mouse 4T1 cells implanted in BALB/C mouse assessed as downregulation of N-Myc gene expression at 50 mg/kg,ip administrated daily for 14 days by RT-qPCR analysis; assay type: functional, organism-based; settings: time 14.0 day
[18] = system: 4T1; assay: Antitumor activity against mouse 4T1 cells implanted in BALB/C mouse assessed as downregulation of NRIP1 gene expression at 25 mg/kg,ip administrated daily for 14 days by RT-qPCR analysis; assay type: functional, organism-based; settings: time 14.0 day
[19] = system: 4T1; assay: Antitumor activity against mouse 4T1 cells implanted in BALB/C mouse assessed as upregulation of ISG15 gene expression at 25 mg/kg,ip administrated daily for 14 days by RT-qPCR analysis; assay type: functional, organism-based; settings: time 14.0 day
[20] = system: 4T1; assay: Antitumor activity against mouse 4T1 cells implanted in BALB/C mouse assessed as upregulation of ISG15 gene expression at 50 mg/kg,ip administrated daily for 14 days by RT-qPCR analysis; assay type: functional, organism-based; settings: time 14.0 day
[21] = system: 4T1; assay: Antitumor activity against mouse 4T1 cells implanted in BALB/C mouse assessed as increase in infiltration of CD8 positive T cells at 50 mg/kg,ip administrated daily for 14 days by immunohistochemical staining based analysis; assay type: functional, organism-based; settings: time 14.0 day
[22] = system: MCF7; assay: Synergistic antiproliferative activity against human MCF7 cells assessed as downregulation of N-Myc gene expression at 2.5 uM incubated for 6 hrs in presence of tamoxifen by RT-qPCR analysis; assay type: functional, cell-based
[23] = system: MCF7; assay: Synergistic antiproliferative activity against human MCF7 cells assessed as downregulation of FOXC1 gene expression at 2.5 uM incubated for 6 hrs in presence of fulvestrant by RT-qPCR analysis; assay type: functional, cell-based
[24] = system: MCF7; assay: Synergistic antitumor activity against human MCF7 cells xenografted in BALB/C mouse assessed as reduction in tumor size at 25 mg/kg,ip administrated every other day for 15 days in presence of 5 mg/kg tamoxifen oral administration; assay type: functional, organism-based; settings: time 15.0 day
[25] = Toxicity in BALB/C mouse xenografted with human MCF7 cells assessed as change in body weight at 25 mg/kg,ip administrated every other day for 15 days in presence of 5 mg/kg tamoxifen oral administration; assay type: organism-based; settings: in vivo, 360 h, time 15 day
[26] = system: MCF7; assay: Synergistic antitumor activity against human MCF7 cells xenografted in BALB/C mouse assessed as downregulation of CCND1 gene expression at 25 mg/kg,ip administrated every other day for 15 days in presence of 5 mg/kg tamoxifen oral administration by RT-qPCR analysis; assay type: functional, organism-based; settings: time 15.0 day
[27] = system: MCF7; assay: Synergistic antitumor activity against human MCF7 cells xenografted in BALB/C mouse assessed as downregulation of C-Myc gene expression at 25 mg/kg,ip administrated every other day for 15 days in presence of 5 mg/kg tamoxifen oral administration by RT-qPCR analysis; assay type: functional, organism-based; settings: time 15.0 day
[28] = system: 4T1; assay: Potentiation of etoposide induced antitumor activity against mouse 4T1 cells implanted in BALB/C mouse assessed as reduction in tumor size at 25 mg/kg,ip administrated daily for 12 days in presence of 8 mg/kg etoposide administration; assay type: functional, organism-based; settings: time 12.0 day
[29] = Toxicity in BALB/C mouse implanted with mouse 4T1 cells assessed as change in body weight at 25 mg/kg,ip administrated daily for 12 days in presence of 8 mg/kg etoposide administration; assay type: organism-based; settings: in vivo, 288 h, time 12 day
[30] = system: 4T1; assay: Potentiation of etoposide induced antitumor activity against mouse 4T1 cells implanted in BALB/C mouse assessed as upregulation of IFIT1 gene expression at 25 mg/kg,ip administrated daily for 12 days in presence of 8 mg/kg etoposide administration by RT-qPCR analysis; assay type: functional, organism-based; settings: time 12.0 day

## Cc1ccc(-c2nc(N3CCN(CCN(C)C)CC3)ncc2-c2ccoc2)cc1.Cl.Cl
[1]
  EC50: 1800 nM
[2]
  EC50: 4740 nM
[3]
  Activity: Active
[4]
  Activity: Active
[5]
  Activity: Active
[6]
  Activity: Active
[7]
  Activity: Active
[8]
  Activity: Active
[9]
  Activity: Active
[10]
  Activity: Active
[11]
  Activity: Active
[12]
  Activity: Active
[13]
  EC50: 2020 nM
[14]
  Activity: Active
[15]
  Activity: Non-Toxic
[16]
  Activity: Non-Toxic
[17]
  Activity: Active
[18]
  Activity: Active
[19]
  Activity: Active
[20]
  Activity: Active
[21]
  Activity: Active
[22]
  Activity: Active
[23]
  Activity: Active
[24]
  Activity: Active
[25]
  Activity: Non-Toxic
[26]
  Activity: Active
[27]
  Activity: Active
[28]
  Activity: Active
[29]
  Activity: Non-Toxic
[30]
  Activity: Active
